From patent publication US20040009196A1, “Use of dhea and some of its derivatives in a cosmetic composition for preventing or treating dermal atrophy” (priority 2000, published 2004) come the findings set out here.

In experiment [1] the test system is skin equivalent sold by the company EPISKIN. The experiment is described as follows: Topical DHEA on reconstructed epidermis: epidermal lipid analysis by HPTLC with [14C]acetate labelling. The format is cell-based. The note with it: 2 μl of DHEA at 1×10^−4 M in ethanol, every 48 hours for 6 days, vs ethanol control. The protocol:
In this example, 2 μl of DHEA at 1×10^−4 M in ethanol were applied every 48 hours, for 6 days, to a skin equivalent sold by the company EPISKIN (LYON, France), after culturing it for 7 days and incubating overnight with [^14C]acetate (2 μCi/ml). The culture and test media are those contained in the kit sold by the supplier. The control consists of an identical epidermal equivalent undergoing a topical application of 2 μl of ethanol diluted 1/1 000.
At the end of the incubation, the epidermal equivalent is detached from its collagenic support. The preparation of the lipids of the epidermal equivalent, and their analysis by HPTLC or high performance thin-layer chromatography, are carried out according to the technique and with the buffers described by M. Ponec (1991, Adv. Lipid Res., 24: 83-117). At the end of the migration of the lipids, autoradiography of the chromatography plate is carried out overnight.

Experiment [2] has the same test system. As to the kind of experiment: Epidermal differentiation in reconstructed epidermis: transglutaminase and filaggrin immunofluorescence, histological analysis. The format is cell-based. The note with it: 2 μl of DHEA at 1×10^−4 M in ethanol, topical, every 48 hours for 6 days.

For `C[C@]12CC[C@H](O)CC1=CC[C@@H]1[C@@H]2CC[C@]2(C)C(=O)CC[C@@H]12` [DHEA, dehydroepiandrosterone], the “increase in the epidermal content of phospholipids compared with the control” value in experiment [1] came to 35%. In experiment [2], the “histological analysis: number of granular layers or parakeratosis” value was “no increase in the number of granular layers or in parakeratosis”; the “modification in epidermal differentiation (expression of transglutaminase and of filaggrin, immunofluorescence labelling)” value is on record as “no modification in epidermal differentiation”.
